From ChEMBL document CHEMBL5729261, “AMPK activators” (2022)

Target: AMP-activated protein kinase (AMPK) alpha-1/beta-1/gamma-1 (Homo sapiens, UniProt P54619+Q13131+Q9Y478)
Assay: In Vitro pAMPK1 Kinase Activation Assay: Compound effect on AMPK enzyme activation was determined in a cell-free format with a 12-point concentration curve. The ADP-Glo detection system was used to determine phosphorylation of a SAMS peptide substrate. Recombinant AMPK α1/β1/γ1 complex was pre-activated by phosphorylation with CAMKK2 followed by incubated with compound for 15 minutes prior to the SAMS phosphorylation reaction. Activity curves and EC50 values were fitted by interpolation to an ATP:ADP standard curve as indicated by the ADP-Glo manufacturer using Prism software.
Format: protein-complex assay

Sequence of AMP-activated protein kinase (AMPK) alpha-1/beta-1/gamma-1 (P54619 whole entry): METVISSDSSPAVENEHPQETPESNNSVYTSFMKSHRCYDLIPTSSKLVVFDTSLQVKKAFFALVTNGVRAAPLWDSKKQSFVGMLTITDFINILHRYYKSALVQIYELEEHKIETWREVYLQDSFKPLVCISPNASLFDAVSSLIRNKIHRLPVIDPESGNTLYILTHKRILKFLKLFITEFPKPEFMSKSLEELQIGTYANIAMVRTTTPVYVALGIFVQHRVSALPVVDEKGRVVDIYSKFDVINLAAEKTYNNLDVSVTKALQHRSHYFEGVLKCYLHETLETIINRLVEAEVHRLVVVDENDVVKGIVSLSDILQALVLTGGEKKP
Sequence of AMP-activated protein kinase (AMPK) alpha-1/beta-1/gamma-1 (Q9Y478 whole entry): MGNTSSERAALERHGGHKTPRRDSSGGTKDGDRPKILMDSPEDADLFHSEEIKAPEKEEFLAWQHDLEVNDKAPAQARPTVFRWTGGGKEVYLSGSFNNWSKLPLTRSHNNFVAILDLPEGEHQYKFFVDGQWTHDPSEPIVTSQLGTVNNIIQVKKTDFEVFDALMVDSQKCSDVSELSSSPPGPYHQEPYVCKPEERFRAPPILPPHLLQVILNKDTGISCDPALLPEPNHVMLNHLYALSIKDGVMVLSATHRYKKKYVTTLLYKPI
Sequence of AMP-activated protein kinase (AMPK) alpha-1/beta-1/gamma-1 (Q13131 whole entry): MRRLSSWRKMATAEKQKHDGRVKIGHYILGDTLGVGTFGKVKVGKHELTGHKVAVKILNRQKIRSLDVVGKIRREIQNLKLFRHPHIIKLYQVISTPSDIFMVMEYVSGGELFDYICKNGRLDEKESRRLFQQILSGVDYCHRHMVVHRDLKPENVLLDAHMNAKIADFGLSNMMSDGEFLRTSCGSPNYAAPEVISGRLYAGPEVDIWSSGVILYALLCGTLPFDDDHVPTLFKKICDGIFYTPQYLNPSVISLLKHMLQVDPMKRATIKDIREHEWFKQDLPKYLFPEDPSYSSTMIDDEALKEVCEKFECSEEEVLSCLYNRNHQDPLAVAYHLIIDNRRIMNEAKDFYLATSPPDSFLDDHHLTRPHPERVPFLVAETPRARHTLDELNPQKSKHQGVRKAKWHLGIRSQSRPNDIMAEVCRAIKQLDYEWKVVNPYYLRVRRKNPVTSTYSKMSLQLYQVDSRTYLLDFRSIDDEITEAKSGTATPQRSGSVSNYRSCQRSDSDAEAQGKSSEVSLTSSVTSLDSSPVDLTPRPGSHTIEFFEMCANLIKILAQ

SMILES | EC50 [nM]
O=S(=O)(NCCOCCO)c1ccc(-c2ccc(-c3cc4nc(O[C@@H]5CO[C@H]6[C@@H]5OC[C@H]6O)[nH]c4cc3Cl)cc2)cc1 | 1.51
O=C(NCC[N+]12CCN(CC1)CC2)c1ccc(-c2ccc(-c3cc4nc(O[C@@H]5CO[C@H]6[C@@H]5OC[C@H]6O)[nH]c4cc3Cl)cc2)cc1 | 0.76
OCC(CO)NCc1ccc(-c2ccc(-c3cc4nc(O[C@@H]5CO[C@H]6[C@@H]5OC[C@H]6O)[nH]c4cc3Cl)cc2)cc1 | 1.08
O=C(NCCC[N+]12CCN(CC1)CC2)c1ccc(-c2ccc(-c3cc4nc(O[C@@H]5CO[C@H]6[C@@H]5OC[C@H]6O)[nH]c4cc3Cl)cc2)cc1 | 0.96
